Test results from PubChem BioAssay AID2060912 (Molecular Pharmacology Branch, DTP, NCI, 2025).

System: HUVEC/MSC spheroids viability
Assay: Human HUVEC/MSC cell line growth inhibition [KRAS2];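 for viability, T/C: percent of DMSO vehicle control luminescence so 100% = untreated viability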
Conditions: for IC50: curve of first compound; for viability, T/C: stronger effect = lower value; active = viability on the fitted dose curve at most 10% of control; inactive = the rest
Method in brief: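 Growth/viability of tumour-free HUVEC–hMSC spheroids was measured after exposure to targeted small molecules and KRAS inhibitors, singly or in combination. Agents were diluted in half-log steps from Cmax-based top concentrations, capped at 10 microM without known Cmax.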

[1] = second compound 0.0316 µM, first compound 0.0316 µM
[2] = second compound 0.0316 µM, first compound 0.1 µM
[3] = second compound 0.0316 µM, first compound 0.316 µM
[4] = second compound 0.0316 µM, first compound 1 µM
[5] = second compound 0.0316 µM, first compound 3.16 µM
[6] = second compound 0.0316 µM, first compound 10 µM
[7] = second compound 0.1 µM, first compound 0.0316 µM
[8] = second compound 0.1 µM, first compound 0.1 µM
[9] = second compound 0.1 µM, first compound 0.316 µM
[10] = second compound 0.1 µM, first compound 1 µM
[11] = second compound 0.1 µM, first compound 3.16 µM
[12] = second compound 0.1 µM, first compound 10 µM
[13] = second compound 0.316 µM, first compound 0.0316 µM
[14] = second compound 0.316 µM, first compound 0.1 µM
[15] = second compound 0.316 µM, first compound 0.316 µM
[16] = second compound 0.316 µM, first compound 1 µM
[17] = second compound 0.316 µM, first compound 3.16 µM
[18] = second compound 0.316 µM, first compound 10 µM
[19] = second compound 1 µM, first compound 0.0316 µM
[20] = second compound 1 µM, first compound 0.1 µM
[21] = second compound 1 µM, first compound 0.316 µM
[22] = second compound 1 µM, first compound 1 µM
[23] = second compound 1 µM, first compound 3.16 µM
[24] = second compound 1 µM, first compound 10 µM
[25] = second compound 3.16 µM, first compound 0.0316 µM
[26] = second compound 3.16 µM, first compound 0.1 µM
[27] = second compound 3.16 µM, first compound 0.316 µM
[28] = second compound 3.16 µM, first compound 1 µM
[29] = second compound 3.16 µM, first compound 3.16 µM
[30] = second compound 3.16 µM, first compound 10 µM
[31] = second compound 10 µM, first compound 0.0316 µM
[32] = second compound 10 µM, first compound 0.1 µM
[33] = second compound 10 µM, first compound 0.316 µM
[34] = second compound 10 µM, first compound 1 µM
[35] = second compound 10 µM, first compound 3.16 µM
[36] = second compound 10 µM, first compound 10 µM

CC(C)NCC(C(=O)N1CCN(c2ncnc3c2C(C)CC3O)CC1)c1ccc(Cl)cc1 (stereo unspecified) + CC1OCC2(CCN(c3cnc(Sc4ccnc(N)c4Cl)c(N)n3)CC2)C1N
7.88 µM: IC50 (second compound 0.0316 µM)
active: viability, T/C [36] 5.59%
0.564 µM: IC50 (second compound 3.16 µM)
0.228 µM: IC50 (second compound 10 µM)
2.55 µM: IC50 (second compound 0.316 µM)
6.15 µM: IC50 (second compound 0.1 µM)
inactive: viability, T/C [1] 115% | viability, T/C [2] 109% | viability, T/C [3] 93.5% | viability, T/C [4] 66.2% | viability, T/C [5] 56.2% | viability, T/C [6] 47.6% | viability, T/C [7] 123% | viability, T/C [8] 107% | viability, T/C [9] 90.9% | viability, T/C [10] 59.6% | viability, T/C [11] 57.3% | viability, T/C [12] 46.1% | viability, T/C [13] 94.1% | viability, T/C [14] 107% | viability, T/C [15] 98.1% | viability, T/C [16] 68.1% | viability, T/C [17] 49.5% | viability, T/C [18] 38% | viability, T/C [19] 89.6% | viability, T/C [20] 91% | viability, T/C [21] 69.8% | viability, T/C [22] 56.4% | viability, T/C [23] 36.4% | viability, T/C [24] 31.6% | viability, T/C [25] 80.3% | viability, T/C [26] 74.4% | viability, T/C [27] 58.3% | viability, T/C [28] 43.1% | viability, T/C [29] 22.1% | viability, T/C [30] 21% | viability, T/C [31] 65.1% | viability, T/C [32] 62.4% | viability, T/C [33] 43.4% | viability, T/C [34] 30.8% | viability, T/C [35] 14.3%
1.31 µM: IC50 (second compound 1 µM)

CC1(C)CCC(CN2CCN(c3ccc(C(=O)NS(=O)(=O)c4ccc(NCC5CCOCC5)c([N+](=O)[O-])c4)c(Oc4cnc5[nH]ccc5c4)c3)CC2)=C(c2ccc(Cl)cc2)C1 + CC1OCC2(CCN(c3cnc(Sc4ccnc(N)c4Cl)c(N)n3)CC2)C1N
3.51 µM: IC50 (second compound 3.16 µM)
4.47 µM: IC50 (second compound 1 µM)
4.69 µM: IC50 (second compound 0.1 µM)
inactive: viability, T/C [1] 99.2% | viability, T/C [2] 116% | viability, T/C [3] 109% | viability, T/C [4] 108% | viability, T/C [5] 83.8% | viability, T/C [7] 116% | viability, T/C [8] 110% | viability, T/C [9] 102% | viability, T/C [10] 94.9% | viability, T/C [11] 78.6% | viability, T/C [13] 91.5% | viability, T/C [14] 124% | viability, T/C [15] 122% | viability, T/C [16] 110% | viability, T/C [17] 75.6% | viability, T/C [19] 91% | viability, T/C [20] 95% | viability, T/C [21] 102% | viability, T/C [22] 92.3% | viability, T/C [23] 71.6% | viability, T/C [25] 93.2% | viability, T/C [26] 91.9% | viability, T/C [27] 93% | viability, T/C [28] 66.1% | viability, T/C [29] 61.3% | viability, T/C [31] 76% | viability, T/C [32] 76.2% | viability, T/C [33] 85.1% | viability, T/C [34] 69.8% | viability, T/C [35] 40.9%
2.23 µM: IC50 (second compound 10 µM)
4.77 µM: IC50 (second compound 0.316 µM)
5.15 µM: IC50 (second compound 0.0316 µM)
active: viability, T/C [6] 4.11% | viability, T/C [12] 1.56% | viability, T/C [18] 3.8% | viability, T/C [24] 0.34% | viability, T/C [30] 0.92% | viability, T/C [36] 0.29%

Cn1ncnc1[C@H]1c2n[nH]c(=O)c3cc(F)cc(c23)N[C@@H]1c1ccc(F)cc1 + CC1OCC2(CCN(c3cnc(Sc4ccnc(N)c4Cl)c(N)n3)CC2)C1N
> 0.1 µM: IC50 (second compound 0.0316 µM) | IC50 (second compound 0.1 µM) | IC50 (second compound 0.316 µM) | IC50 (second compound 1 µM) | IC50 (second compound 3.16 µM) | IC50 (second compound 10 µM)
inactive: viability, T/C (second compound 0.0316 µM, first compound 0.000316 µM) 105% | viability, T/C (second compound 0.0316 µM, first compound 0.001 µM) 111% | viability, T/C (second compound 0.0316 µM, first compound 0.00316 µM) 97.5% | viability, T/C (second compound 0.0316 µM, first compound 0.01 µM) 86.9% | viability, T/C [1] 90.8% | viability, T/C [2] 89.7% | viability, T/C (second compound 0.1 µM, first compound 0.000316 µM) 87.9% | viability, T/C (second compound 0.1 µM, first compound 0.001 µM) 114% | viability, T/C (second compound 0.1 µM, first compound 0.00316 µM) 99.9% | viability, T/C (second compound 0.1 µM, first compound 0.01 µM) 75.7% | viability, T/C [7] 93.2% | viability, T/C [8] 95.6% | viability, T/C (second compound 0.316 µM, first compound 0.000316 µM) 80% | viability, T/C (second compound 0.316 µM, first compound 0.001 µM) 111% | viability, T/C (second compound 0.316 µM, first compound 0.00316 µM) 98.5% | viability, T/C (second compound 0.316 µM, first compound 0.01 µM) 96.9% | viability, T/C [13] 93.2% | viability, T/C [14] 81.7% | viability, T/C (second compound 1 µM, first compound 0.000316 µM) 83.9% | viability, T/C (second compound 1 µM, first compound 0.001 µM) 93.7% | viability, T/C (second compound 1 µM, first compound 0.00316 µM) 95.4% | viability, T/C (second compound 1 µM, first compound 0.01 µM) 84.3% | viability, T/C [19] 93.8% | viability, T/C [20] 67.7% | viability, T/C (second compound 3.16 µM, first compound 0.000316 µM) 79.7% | viability, T/C (second compound 3.16 µM, first compound 0.001 µM) 94.4% | viability, T/C (second compound 3.16 µM, first compound 0.00316 µM) 80.9% | viability, T/C (second compound 3.16 µM, first compound 0.01 µM) 74% | viability, T/C [25] 76.8% | viability, T/C [26] 69.2% | viability, T/C (second compound 10 µM, first compound 0.000316 µM) 69.7% | viability, T/C (second compound 10 µM, first compound 0.001 µM) 82.3% | viability, T/C (second compound 10 µM, first compound 0.00316 µM) 67.3% | viability, T/C (second compound 10 µM, first compound 0.01 µM) 68.3% | viability, T/C [31] 65.7% | viability, T/C [32] 56%
